In ChEMBL document CHEMBL5661943, “ASAP - In vitro antiviral effect” (2024) one finds EC50 and EC90 data, which are given here for 22 compounds.

The subject of this test is dengue virus type 2. As to the kind of experiment: Functional assay to measure dose dependent changes in antiviral-drug inhibitory efficacy against Dengue virus type 2 New Guinea C in Vero E6 miRFP670 cells (cotreated with P-gp inhibitor, CP100356). Cells are treated with antiviral candidates that are serially diluted, following infection, cells are fixed. EC50 is reported via analysis of fluorescence intensity using high-content imager. The …. The format is organism-based, Chlorocebus sabaeus, Vero C1008. Conditions: Dengue virus.

Usually EC50 stands for the concentration giving half of the maximal effect. The EC90 is the point of the concentration-response curve where the effect stands at 90%.

Bounds are passed on as bounds.

With `C[C@@]1(O)[C@H](O)[C@@H](CO)O[C@H]1n1ccc(N)nc1=O`, the EC50 (Vero C1008) is 116 µM. Moreover, the 90% effect concentration (EC90) (Vero C1008, Baseline response 0 %, Hill slope -2.692, Maximum measured 107.888 %, Maximum response 100 %, Minimum measured 21.977 %, P-gp concentration 500 nM, R squared 0.958, P-gp inhibitor CP100356) is above 200 µM.

On to `C=C1C[C@H](c2cc(Cl)cc(NC(=O)OCc3ccccc3)c2)[C@@H](c2cccc(-c3nn[nH]n3)c2)C1`, for which the half-maximal effective concentration (EC50) (Vero C1008) was above 6.25 µM. The EC90 (Vero C1008, Maximum measured 124.641 %, Minimum measured 90.066 %, P-gp concentration 500 nM, P-gp inhibitor CP100356) was above 6.25 µM.

`CN(C)C(=O)c1cc(CN)cc([C@@H]2C[C@H]2c2cc(Cl)cc(NC(=O)OCc3ccccc3)c2)c1`: the EC50 (Vero C1008) was 2 µM. In addition, the EC90 (Vero C1008, Baseline response 0 %, Hill slope -4.597, Maximum measured 117.075 %, Maximum response 100 %, Minimum measured 13.909 %, P-gp concentration 500 nM, R squared 0.926, P-gp inhibitor CP100356) was above 3.12 µM.

Regarding `CC(=Cc1cc(Cl)cc(NC(=O)OCc2ccccc2)c1)c1cccc(CN)c1`, the EC50 (Vero C1008) is above 1.56 µM. Moreover, the 90% effect concentration (EC90) (Vero C1008, Maximum measured 159.566 %, Minimum measured 81.442 %, P-gp concentration 500 nM, P-gp inhibitor CP100356) was above 1.56 µM.

As for `C=CC[C@H](Nc1cc(Cl)cc(NC(=O)OCc2ccccc2)c1)c1cccc(CN)c1`, the EC50 (Vero C1008) was determined as 0.546 µM. Further, the EC90 (Vero C1008, Baseline response 0 %, EC90 CI (lower) 0.029 uM, EC90 CI (upper) 0.719 uM, Hill slope -1.654, Maximum measured 56.301 %, Maximum response 100 %, Minimum measured 0.945 %, P-gp concentration 500 nM, R squared 0.693, P-gp inhibitor CP100356) was 2.06 µM.

Take `N[C@H]1Cc2ccc(NC(=O)c3cc(Cl)cc(NC(=O)OCc4ccccc4)c3)cc2C1`: for the setting “Vero C1008”, the EC50 was found to be 1.64 µM. Moreover, the concentration for an effect of 90% (EC90) (Vero C1008, Baseline response 0 %, EC90 CI (lower) 0.187 uM, EC90 CI (upper) 8.327 uM, Hill slope -7.929, Maximum measured 105.944 %, Maximum response 100 %, Minimum measured 3.386 %, P-gp concentration 500 nM, R squared 0.874, P-gp inhibitor CP100356) amounted to 2.17 µM.

Take `NCc1ccc2c(c1)[C@H]1OCCC[C@H]1[C@H](c1cc(Cl)cc(NC(=O)OCc3ccccc3)c1)N2`: where the note is “Vero C1008”, the EC50 amounted to 1.9 µM. Further, the EC90 (Vero C1008, Baseline response 0 %, EC90 CI (lower) 1.087 uM, EC90 CI (upper) 1.673 uM, Hill slope -6.376, Maximum measured 104.423 %, Maximum response 100 %, Minimum measured 0.619 %, P-gp concentration 500 nM, R squared 0.968, P-gp inhibitor CP100356) amounted to 2.69 µM.

For `COc1ccc(S(=O)(=O)Nc2cc(F)c(Cl)cc2C(=O)NCC(C)C)cc1`, under “Vero C1008”, the EC50 was 5.86 µM and the EC90 worked out at 6.67 µM.

Regarding `O=C(Nc1cc(Cl)cc([C@H]2C[C@@H]2c2cccc(-c3nnn[nH]3)c2)c1)OCc1ccccc1`, where the note is “Vero C1008”, the half-maximal effective concentration (EC50) is above 25 µM. Also, where the note is “Vero C1008, Maximum measured 174.938 %, Minimum measured 87.593 %, P-gp concentration 500 nM, P-gp inhibitor CP100356”, the EC90 was above 25 µM.

For `O=C(O)Cn1ncc2cc(-c3cc(Cl)cc(NC(=O)OCc4ccccc4)c3)ccc21`, the 50% effective concentration (EC50) (Vero C1008) is above 50 µM. Moreover, the 90% effect concentration (EC90) (Vero C1008, Maximum measured 125.945 %, Minimum measured 96.066 %, P-gp concentration 500 nM, P-gp inhibitor CP100356) is above 50 µM.

For the compound `O=C(Nc1cc(Cl)cc(CNc2cccc(-c3nn[nH]n3)c2)c1)OCc1ccccc1`, the EC50 (Vero C1008) is above 25 µM. Besides, the concentration for an effect of 90% (EC90) (Vero C1008, Maximum measured 175.327 %, Minimum measured 92.337 %, P-gp concentration 500 nM, P-gp inhibitor CP100356) is above 25 µM.

Turning to `O=C(Nc1cc(Cl)cc([C@H](C#CCO)Nc2ccc(-c3nn[nH]n3)cc2)c1)OCc1ccccc1`, the EC50 (Vero C1008) was above 50 µM. Also, for the setting “Vero C1008, Maximum measured 120.318 %, Minimum measured 85.942 %, P-gp concentration 500 nM, P-gp inhibitor CP100356”, the EC90 was above 50 µM.

Take `CC(=Cc1cccc(CN)c1)c1cc(Cl)cc(NC(=O)OCc2ccccc2)c1`: for the setting “Vero C1008”, the EC50 was above 6.25 µM. Also, the 90% effect concentration (EC90) (Vero C1008, Maximum measured 157.677 %, Minimum measured 102.187 %, P-gp concentration 500 nM, P-gp inhibitor CP100356) was above 6.25 µM.

For the compound `N[C@H]1CC[C@H](c2ccc(NC(=O)c3cc(Cl)cc(NC(=O)OCc4ccccc4)c3)cc2)C1`, the concentration giving a half-maximal response (EC50) (Vero C1008) was found to be 1.49 µM. Moreover, the 90% effect concentration (EC90) (Vero C1008, Baseline response 0 %, Hill slope -16.959, Maximum measured 155.273 %, Maximum response 100 %, Minimum measured 29.767 %, P-gp concentration 500 nM, R squared 0.495, P-gp inhibitor CP100356) was above 1.56 µM.

As for `CNC(=O)[C@H](Nc1cccc(CN)c1)c1cc(Cl)cc(NC(=O)OCc2ccccc2)c1`, where the note is “Vero C1008”, the EC50 is 7.81 µM. Besides, for the setting “Vero C1008, Baseline response 0 %, EC90 CI (lower) 4.909 uM, EC90 CI (upper) 7.205 uM, Hill slope -8.054, Maximum measured 105.221 %, Maximum response 100 %, Minimum measured 2.373 %, P-gp concentration 500 nM, R squared 0.934, P-gp inhibitor CP100356”, the EC90 was 10.3 µM.

Regarding `Clc1cccc([C@H](C#Cc2ccccc2)Nc2cccc(-c3nn[nH]n3)c2)c1`, the concentration giving a half-maximal response (EC50) (Vero C1008) was above 6.25 µM. Further, the concentration for an effect of 90% (EC90) (Vero C1008, Maximum measured 160.53 %, Minimum measured 108.244 %, P-gp concentration 500 nM, P-gp inhibitor CP100356) is above 6.25 µM.

As for `NCc1ccc([C@H]2C[C@@H]2c2cc(Cl)cc(NC(=O)OCc3ccccc3)c2)cc1`, the EC50 (Vero C1008) came out at 2.72 µM. Further, the EC90 (Vero C1008, Baseline response 0 %, Hill slope -3.689, Maximum measured 118.529 %, Maximum response 100 %, Minimum measured 38.173 %, P-gp concentration 500 nM, R squared 0.774, P-gp inhibitor CP100356) is above 3.12 µM.

Take `C=CC[C@H](Nc1cccc(-c2nn[nH]n2)c1)c1cc(Cl)cc(NC(=O)OCc2ccccc2)c1`: the EC50 (Vero C1008) is below 0.391 µM. Moreover, the concentration for an effect of 90% (EC90) (Vero C1008, Baseline response 0 %, EC90 CI (lower) 0.009 uM, EC90 CI (upper) 0.062 uM, Hill slope -1.268, Maximum measured 19.733 %, Maximum response 100 %, Minimum measured 0.468 %, P-gp concentration 500 nM, R squared 0.944, P-gp inhibitor CP100356) is 0.74 µM.

Consider `O=C(Nc1cc(Cl)cc(C(=O)Nc2ccc3c(c2)CCNC3)c1)OCc1ccccc1`, for which the 50% effective concentration (EC50) (Vero C1008) is above 1.56 µM. For the same compound, for the setting “Vero C1008, Maximum measured 159.578 %, Minimum measured 136.105 %, P-gp concentration 500 nM, P-gp inhibitor CP100356”, the EC90 was above 1.56 µM.

Regarding `CNC(=O)[C@H](Nc1cc(Cl)cc(NC(=O)OCc2ccccc2)c1)c1cccc(CN)c1`, the concentration giving a half-maximal response (EC50) (Vero C1008) came out at 7.19 µM. For the same compound, for the setting “Vero C1008, Baseline response 0 %, EC90 CI (lower) 3.139 uM, EC90 CI (upper) 9.78 uM, Hill slope -8.413, Maximum measured 116.634 %, Maximum response 100 %, Minimum measured 2.553 %, P-gp concentration 500 nM, R squared 0.885, P-gp inhibitor CP100356”, the 90% effect concentration (EC90) stood at 9.34 µM.

For `N#C[C@H](Nc1cc(Cl)cc(NC(=O)OCc2ccccc2)c1)c1ccc(-c2nn[nH]n2)cc1`, under “Vero C1008”, the EC50 was above 50 µM. For the same compound, for the setting “Vero C1008, Baseline response 0 %, Hill slope -0.236, Maximum measured 132.412 %, Maximum response 100 %, Minimum measured 19.2 %, P-gp concentration 500 nM, R squared 0.02, P-gp inhibitor CP100356”, the EC90 is above 50 µM.

Regarding `O=C(Nc1cc(Cl)cc(C(=O)Nc2ccc([C@@H]3C[C@H]3C(=O)O)cc2)c1)OCc1ccccc1`, where the note is “Vero C1008”, the EC50 was above 50 µM. Further, the EC90 (Vero C1008, Maximum measured 124.209 %, Minimum measured 92.524 %, P-gp concentration 500 nM, P-gp inhibitor CP100356) is above 50 µM.
